Test results published in patent US10829520B2, “Beta-hairpin peptidomimetics” (POLYPHOR AG, priority 2015, dated 2020).
Where two headings read alike, the source gives them in different places. Where a SMILES comes first, the peptide text is derived from it. Bridges are numbered along the chain shown (N, C = ends). Roman numbers before positions name the chains, in order. [ ]: non-standard residue; d: D form. Tle = CC(C)(C)[C@H](N)C(=O)O; Nle = CCCC[C@H](N)C(=O)O; Orn = NCCC[C@H](N)C(=O)O; Dab = NCC[C@H](N)C(=O)O; Dap = NC[C@H](N)C(=O)O

Key:
Assay type in all cases: cell-based
[1] = system: Acinetobacter baumannii 872842
[2] = system: Escherichia coli ATCC 25922; details: ATCC 25922
In short: (§1)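 CLSI broth microdilution in cation-adjusted Mueller-Hinton II broth with 0.002% Polysorbate 80, inoculum appr. 10^6 CFU/mL, peptides in serial two-fold dilutions. MIC (μg/mL) is the lowest concentration with no visible growth after 18-20 hours at 35° C.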

Escherichia coli 926415 = system: Escherichia coli 926415
[3] = system: Klebsiella pneumoniae 968733
[4] = system: Pseudomonas aeruginosa ATCC 27853; details: ATCC 27853
In short: as §1

[5] = system: Acinetobacter baumannii DSM 30008; details: DSM 30008
In short: as §1

[6] = system: Klebsiella pneumoniae SSI #3010; details: SSI #3010
In short: as §1

[7] = system: human red blood cells (hRBC); experiment: Hemolysis of human red blood cells; details: red cells of human, 1 h
In short: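 Hemolysis was read as supernatant absorbance at 540 nm and expressed as a percentage of Triton X-100 (2.5%) lysis. Washed human red cells (20% v/v) had been exposed to each peptide at 100 μg/mL for 1 h at 37° C.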

[8] = clinical isolate, Mueller-Hinton II broth, P-80 0.002% present
[9] = clinical isolate, Mueller-Hinton II broth, measured in absence of P-80

Row | Molecule | Acinetobacter baumannii 872842 MIC [1]; 872842 [µg/mL] | Escherichia coli ATCC 25922 MIC [2] [µg/mL] | Escherichia coli 926415 MIC (Escherichia coli 926415; 926415) [µg/mL] | Klebsiella pneumoniae 968733 MIC [3]; 968733 [µg/mL] | Pseudomonas aeruginosa ATCC 27853 MIC [4] [µg/mL] | Acinetobacter baumannii DSM 30008 MIC [5] [µg/mL] | Klebsiella pneumoniae SSI #3010 MIC [6] [µg/mL] | Hemolysis at 100 μg/mL [7]; 100 [%] | Hemolysis at 100 μg/mL ([7]; 100 μg/mL) [%] | Acinetobacter baumannii 872842 MIC [1, 8] [µg/mL] | Acinetobacter baumannii 872842 MIC [1, 9] [µg/mL] | Escherichia coli 926415 MIC (Escherichia coli 926415; [8]) [µg/mL] | Escherichia coli 926415 MIC (Escherichia coli 926415; [9]) [µg/mL] | Klebsiella pneumoniae 968733 MIC [3, 8] [µg/mL] | Klebsiella pneumoniae 968733 MIC [3, 9] [µg/mL]
1 | CCCC[C@@H]1NC(=O)[C@@H]2CCCN2C(=O)[C@H]2CCCN2C(=O)[C@H](CO)NC(=O)[C@H](C)NC(=O)[C@H](C(C)(C)C)NC(=O)[C@H](CCN)NC(=O)[C@H](Cc2c[nH]c3ccccc23)NC(=O)[C@H](CCN)NC(=O)[C@@H](CCC(=O)N[C@H]2CCNC(=O)[C@H]([C@@H](C)O)NC(=O)[C@H](CCN)NC(=O)[C@H](CCN)NC(=O)[C@H](CC(C)C)NC(=O)[C@@H](Cc3ccccc3)NC(=O)[C@H](CCN)NC2=O)NC(=O)[C@H](CCCN)NC(=O)[C@H](CCN)NC(=O)[C@H](Cc2ccc(O)cc2)NC(=O)[C@H](CO)NC1=O [Ex. 1] (I: cyclo([Nle]SY[Dab][Orn][dE][Dab]W[Dab][Tle]AS[dP]P) / II: [Dab][Dab][dF]L[Dab][Dab]T; amide I:6-II:N; lactam II:1-II:C) | 2 | 0.25 | 1 | 4 | 0.5 | 0.125 | 0.5 | 1 | – | – | – | – | – | – | –
2 | CCCC[C@@H]1NC(=O)[C@@H]2CCCN2C(=O)[C@H]2CCCN2C(=O)[C@H](CO)NC(=O)[C@H](C)NC(=O)[C@H](C(C)(C)C)NC(=O)[C@H](CCN)NC(=O)[C@H](Cc2c[nH]c3ccccc23)NC(=O)[C@H](CCN)NC(=O)[C@@H](CCC(=O)N[C@@H](CCN)C(=O)N[C@H]2CCNC(=O)[C@H]([C@@H](C)O)NC(=O)[C@H](CCN)NC(=O)[C@H](CCN)NC(=O)[C@H](CC(C)C)NC(=O)[C@@H](Cc3ccccc3)NC(=O)[C@H](CCN)NC2=O)NC(=O)[C@H](CCCN)NC(=O)[C@H](CCN)NC(=O)[C@H](Cc2ccc(O)cc2)NC(=O)[C@H](CO)NC1=O [Ex. 2] (I: cyclo([Nle]SY[Dab][Orn][dE][Dab]W[Dab][Tle]AS[dP]P) / II: [Dab][Dab][Dab][dF]L[Dab][Dab]T; amide I:6-II:N; lactam II:2-II:C) | 2 | 0.5 | 2 | 4 | 0.25 | 1 | 1 | 1 | – | – | – | – | – | – | –
3 | CCCC[C@@H]1NC(=O)[C@@H]2CCCN2C(=O)[C@H]2CCCN2C(=O)[C@H](CO)NC(=O)[C@H](C)NC(=O)[C@H](C(C)(C)C)NC(=O)[C@H](CCN)NC(=O)[C@H](Cc2c[nH]c3ccccc23)NC(=O)[C@H](CCN)NC(=O)[C@H](CCC(=O)N[C@@H](CCN)C(=O)N[C@H]2CCNC(=O)[C@H]([C@@H](C)O)NC(=O)[C@H](CCN)NC(=O)[C@H](CCN)NC(=O)[C@H](CC(C)C)NC(=O)[C@@H](Cc3ccccc3)NC(=O)[C@H](CCN)NC2=O)NC(=O)[C@H](CCCN)NC(=O)[C@H](CCN)NC(=O)[C@H](Cc2ccc(O)cc2)NC(=O)[C@H](CO)NC1=O [Ex. 3] (I: cyclo([Nle]SY[Dab][Orn]E[Dab]W[Dab][Tle]AS[dP]P) / II: [Dab][Dab][Dab][dF]L[Dab][Dab]T; amide I:6-II:N; lactam II:2-II:C) | 2 | 0.5 | 0.25 | 1 | 0.25 | 1 | 0.5 | <1 | – | – | – | – | – | – | –
4 | CCCC[C@@H]1NC(=O)[C@@H]2CCCN2C(=O)[C@H]2CCCN2C(=O)[C@H](CO)NC(=O)[C@H](C)NC(=O)[C@H](C(C)(C)C)NC(=O)[C@H](CCN)NC(=O)[C@H](Cc2c[nH]c3ccccc23)NC(=O)[C@H](CCN)NC(=O)[C@H](CC(=O)N[C@@H](CCN)C(=O)N[C@@H](CCN)C(=O)N[C@H]2CCNC(=O)[C@H]([C@@H](C)O)NC(=O)[C@H](CCN)NC(=O)[C@H](CCN)NC(=O)[C@H](CC(C)C)NC(=O)[C@@H](Cc3ccccc3)NC(=O)[C@H](CCN)NC2=O)NC(=O)[C@H](CCCN)NC(=O)[C@H](CCN)NC(=O)[C@H](Cc2ccc(O)cc2)NC(=O)[C@H](CO)NC1=O [Ex. 4] (I: cyclo([Nle]SY[Dab][Orn]D[Dab]W[Dab][Tle]AS[dP]P) / II: [Dab][Dab][Dab][Dab][dF]L[Dab][Dab]T; amide I:6-II:N; lactam II:3-II:C) | 2 | 1 | 1 | 8 | 0.25 | 1 | 1 | 1 | – | – | – | – | – | – | –
5 | CCCC[C@@H]1NC(=O)[C@@H]2CCCN2C(=O)[C@H]2CCCN2C(=O)[C@H](CO)NC(=O)[C@H](C)NC(=O)[C@H](C(C)(C)C)NC(=O)[C@H](CCN)NC(=O)[C@H](Cc2c[nH]c3ccccc23)NC(=O)[C@H](CCN)NC(=O)[C@@H](CCC(=O)N[C@H](C(=O)N[C@@H](CCN)C(=O)N[C@H]2CCNC(=O)[C@H]([C@@H](C)O)NC(=O)[C@H](CCN)NC(=O)[C@H](CCN)NC(=O)[C@H](CC(C)C)NC(=O)[C@@H](Cc3ccccc3)NC(=O)[C@H](CCN)NC2=O)[C@@H](C)O)NC(=O)[C@H](CCCN)NC(=O)[C@H](CCN)NC(=O)[C@H](Cc2ccc(O)cc2)NC(=O)[C@H](CO)NC1=O [Ex. 5] (I: cyclo([Nle]SY[Dab][Orn][dE][Dab]W[Dab][Tle]AS[dP]P) / II: T[Dab][Dab][Dab][dF]L[Dab][Dab]T; amide I:6-II:N; lactam II:3-II:C) | 1 | 2 | 0.5 | 2 | 0.5 | 0.5 | 0.5 | 1 | – | – | – | – | – | – | –
6 | CCCC[C@@H]1NC(=O)[C@@H]2CCCN2C(=O)[C@H]2CCCN2C(=O)[C@H]([C@@H](C)O)NC(=O)[C@H](CN)NC(=O)[C@H](C(C)(C)C)NC(=O)[C@@H](NC(=O)[C@H](Cc2c[nH]c3ccccc23)NC(C)=O)CSSC[C@@H](C(=O)N[C@@H](CCN)C(=O)N[C@H](C(=O)N[C@@H](CCN)C(=O)N[C@H]2CCNC(=O)[C@H]([C@@H](C)O)NC(=O)[C@H](CCN)NC(=O)[C@H](CCN)NC(=O)[C@H](CC(C)C)NC(=O)[C@@H](Cc3ccccc3)NC(=O)[C@H](CCN)NC2=O)[C@@H](C)O)NC(=O)[C@H](Cc2ccc(O)cc2)NC(=O)CNC1=O [Ex. 19] (Ac-WC[Tle][Dap]T[dP]P[Nle]GYC[Dab]T[Dab][Dab][Dab][dF]L[Dab][Dab]T; disulfide 2-11; lactam 15-C) | 0.75 | – | 0.25 | 0.75 | 1 | 0.25 | 1 | – | <1 | – | – | – | – | – | –
7 | CCCC[C@@H]1NC(=O)[C@@H]2CCCN2C(=O)[C@H]2CCCN2C(=O)[C@H]([C@@H](C)O)NC(=O)[C@H](CN)NC(=O)[C@H](C(C)(C)C)NC(=O)[C@@H](NC(=O)[C@H](Cc2c[nH]c3ccccc23)NC(C)=O)CSSC[C@@H](C(=O)N[C@@H](CCN)C(=O)N[C@H](C(=O)N[C@@H](CCN)C(=O)N[C@H]2CCNC(=O)[C@H]([C@@H](C)O)NC(=O)[C@H](CCN)NC(=O)[C@H](CCN)NC(=O)[C@H](CC(C)C)NC(=O)[C@@H](Cc3ccccc3)NC(=O)[C@H](CCN)NC2=O)[C@@H](C)O)NC(=O)[C@H](Cc2ccc(O)cc2)NC(=O)CNC1=O [Ex. 116] (Ac-WC[Tle][Dap]T[dP]P[Nle]GYC[Dab]T[Dab][Dab][Dab][dF]L[Dab][Dab]T; disulfide 2-11; lactam 15-C) | 0.125 | – | 0.0625 | 0.5 | 1 | 0.25 | 0.25 | – | <1 | – | – | – | – | – | –
8 | colistin [reference compound] | – | – | – | – | – | – | – | – | – | >8 | 64 | 8 | 16 | >8 | 16
